Measurements taken from patent US20080096943A1, “Organic Compunds” (priority 2004, published 2008).

Target: T1, human CCR-3 (Homo sapiens, UniProt P51677)
T1 construct: expressed in transfected cells; membranes used
T1 sequence (P51677 1-355): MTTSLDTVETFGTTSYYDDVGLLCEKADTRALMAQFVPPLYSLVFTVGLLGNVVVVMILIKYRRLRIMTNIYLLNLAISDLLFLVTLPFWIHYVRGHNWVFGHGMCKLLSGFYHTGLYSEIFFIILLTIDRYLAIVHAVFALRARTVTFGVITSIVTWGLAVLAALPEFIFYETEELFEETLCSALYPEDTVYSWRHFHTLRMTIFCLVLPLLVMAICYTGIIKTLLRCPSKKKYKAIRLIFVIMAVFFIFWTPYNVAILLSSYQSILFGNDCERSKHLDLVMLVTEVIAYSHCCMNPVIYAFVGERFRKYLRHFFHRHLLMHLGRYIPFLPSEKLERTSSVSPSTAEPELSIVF
Test: [125I]-human eotaxin binding to CCR-3, SPA assay
Details: inhibition of [125I]-human eotaxin binding; membranes of RBL-2H3 cells stably expressing CCR3; 4 hours at room temperature
Excerpt: Recombinant cells expressing human CCR-3 are captured by wheatgerm agglutinin (WGA) polyvinyltoluidene (PVT) SPA beads (available from Amersham), through a specific interaction between the WGA and carbohydrate residues of glycoproteins on the surface of the cells. [^125I]-human eotaxin (available from Amersham) binds specifically to CCR-3 receptors bringing the [^125I]-human eotaxin in close proximity to the SPA beads. Emitted â-particles from the [^125I]-human eotaxin excite, by its proximity, the fluorophore in the beads and produce light.
Preparation of Assay Buffer: 5.96 g HEPES and 7.0 g sodium chloride are dissolved in distilled water and 1 M aqueous CaCl2 (1 ml) and 1M aqueous MgCl2 (5 ml) are added. The pH is adjusted to 7.6 with NaOH and the solution made to a final volume of 1 l using distilled water. 5 g bovine serum albumin and 0.1 g sodium azide are then dissolved in the solution and the resulting buffer stored at 4° C. […]
Preparation of membranes: Confluent rat basophil leukaemia (RBL-2H3) cells stably expressing CCR3 are removed from tissue culture flasks using enzyme-free cell dissociation buffer and resuspended in phosphate-buffered saline. […] The resulting scintillations are counted using a Canberra Packard TOPCOUNT™ scintillator counter, each well being counted for 1 minute. […]

Row | Structure (SMILES) | IC50 [nM]
1 | Cc1noc(C)c1NC(=O)NCCCCN(C)Cc1ccc(F)cc1 [Example 1, 1-(3,5-Dimethyl-isoxazole-4-yl)-3-[4-[(4-fluorobenzyl)methylamino]-butyl]-urea] | 1540
2 | CN(CCCCNC(=O)Nc1ccc(F)c(F)c1)Cc1ccc(F)cc1 [Example 2, 1-(3,4-difluorophenyl)-3-{4-[(4-fluorobenzyl)methylamino]-butyl}-urea] | 49
